Assay results: publication PMC13534789, “Molecular Glue Degraders Enhance CAPRIN1‐Dependent Lysosomal Degradation of APP and Reduce Amyloid β in Alzheimer's Disease” (Advanced Science, 2026)

Experiments:
[1] = biological target: APP (Homo sapiens, UniProt P05067); test: Western blot of APP in HEK-APP695WT cells; format: cell-based; design: expressed in transfected cells; conditions: 72 h
[2] = biological target: CAPRIN1–APP interaction (Homo sapiens, UniProt P05067+Q14444); test: In vitro binding assay, recombinant CAPRIN1 and APP (reciprocal co-IP); design: recombinant human CAPRIN1 (full length, 100 ng) was added; purchased Biolegend; conditions: concentration-dependent
Description: When CAPRIN1 was used as a bait, recombinant CAPRIN1 (200 ng) was mixed with anti‐CAPRIN1 antibodies (1 µg) in IP buffer (25 mM Tris, 150 mM NaCl, 5% Glycerol, and 1% Triton X‐100 at pH 7.4) overnight at 4°C, followed by the addition of Protein‐G agarose beads for 4 h at 4°C. CAPRIN1 conjugated beads were then washed with binding buffer (20 mM HEPES, 100 mM NaCl, 0.01% Triron X‐100, and 5% Glycerol at pH 7.25) before the addition of recombinant human APP (prey) for 1 h at 4°C. Beads were washed and eluted with Laemmli buffer with boiling, followed by Western blotting. When APP was used as a bait, biotin‐conjugated APP antibody (1 µg; 4G8, Biolegend) was pre‐mixed with recombinant APP (100 ng, Biolegend) in pulldown buffer (0.1% NP‐40, 50 mM Tris, 150 mM NaCl, 0.2 mM EDTA, 100 mM KCl, 1 mM MgCl2, 0.2 mM CaCl2, and 10% glycerol) overnight at 4°C, followed by addition of 0.5 mg of Streptavidin magnetic beads (Pierce) for 1 h at 4°C. After washing the beads, recombinant human CAPRIN1 (full length, 100 ng) was added together with dose‐dependent 0043 in the binding buffer for 1 h at 4°C. Beads were washed and eluted with Laemmli buffer with boiling, followed by Western blotting.

[3] = tested on: LN229 and HCT116 cells; test: Cancer cell viability; format: cell-based, human
[4] = tested on: HEK‐APP695WT cells; test: CellTiter-Glo cell viability, HEK cells; format: cell-based, human; conditions: 10 µM, 72 h
[5] = biological target: T1, CAPRIN1 and APP (Homo sapiens, UniProt P05067+Q14444); test: Streptavidin pull-down with biotinylated 0152 in AG27606-N lysates; format: binding
T1 construct: endogenous in cells; host or cells: AG27606-Ns, sAD2.3-Ns (iPSC-derived neurons) and their lysates

[6] = biological target: T2, 3R‐APP695‐HiBiT (Homo sapiens, UniProt P05067, K724R/K725R/K726R); test: HiBiT luminescence and Aβ42 ELISA in 3R-APP695-HiBiT HEK cells; format: cell-based; conditions: KKK motif K649–K651 replaced by arginines, 72 h
T2 construct: expressed in transfected cells
Source text: To validate this interaction, we co‐expressed the C‐terminal domain of APP (HiBiT‐tagged C99) and the N‐terminus of FLAG‐tagged CAPRIN1 (residues 1–250) in HEK cells. Flag IP followed by western blotting confirmed the interaction between CAPRIN1 and APP (Figure 4H). To further delineate the interaction interface, we focused on a lysine‐rich (KKK) motif (K649–K651) within APP as a potential CAPRIN1‐interacting region, given its location within the cytosolic domain of C99 and its enrichment in basic residues that may mediate protein–protein interactions. To assess the functional relevance of this interaction in compound activity, we generated an APP695‐3R mutant, replacing the KKK motif (K649‐K651) with arginines by site‐directed mutagenesis. […] To further assess the role of this motif in APP‐CAPRIN1 interaction, we performed co‐immunoprecipitation experiments comparing WT‐ and 3R‐APP695‐HiBiT.
HEK293 cells were purchased from the American Type Culture Collection (ATCC). Lentiviral plasmids (pLV‐Hygro‐CMV‐hAPP, pLV‐Hygro‐CMV‐hAPP‐Hibit, and pLV‐Hygro‐CMV‐hAPP ‐3K to 3R‐Hibit) for APP695WT HEK293 and APP695‐Hibit HEK293 were generated in the third‐generation plasmid. […] Once expanded, clones were analyzed by ELISA for amyloid beta 42 (Aβ42), western blot for APP expression, and Hibit‐lytic assay (Promega). […]

SMILES | Intracellular APP (western blot) ([1]; HEK-APP695WT cells, increasing concentrations) | Effects on APP and Aβ42 in CAPRIN1 KO cells ([1]; sgCAPRIN1 HEK-APP695WT cells, 10 µM) | Interaction of recombinant CAPRIN1 and APP (reciprocal co-IP) [2] | Cancer cell growth [3] | Cell viability (CellTiter-Glo) [4] | Competition of the 0152-biotin pull-down by excess free compound [5] | Response of 3R-APP695-HiBiT cells (HiBiT luminescence, Aβ42 ELISA) [6]
N#Cc1cccc(NC(=O)Nc2nc3ccc(C(=O)N4CCOCC4)cc3s2)c1 [compound 0043] | reduced intracellular APP | abolished | enhanced the interaction between CAPRIN1 and APP | no effects | without inducing cytotoxicity | – | –
COc1cccc(NC(=O)Nc2nc3ccc(C(=O)N4CCOCC4)cc3s2)c1 [compound 0152] | – | – | – | – | – | competitively inhibited | no response
